Assay results taken from US12319655B2, “RAF kinase inhibitors and methods of use thereof” (Deciphera Pharmaceuticals, LLC, priority 2021, dated 2025).
pIC50: −log10 of the molar value.

Experiments:
WM3928 cells = assay: WM3928 Cell Proliferation Assay (1); assay type: cell-based
How it was run: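 IC50 was derived from resazurin fluorescence (ex 540, em 600 nm) after a 6–7 h dye incubation. Before that, cells had 67–72 h of compound exposure at 37 °C, 5% CO2.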

H2405 cells = assay: H2405 Cell Proliferation Assay (1); assay type: cell-based; details: Homo sapiens, NCI-H2405
How it was run: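 Viability was read by resazurin reduction (ex 540 nm, em 600 nm; 5-6 h with 40 μL of 440 μM stock) after 67-72 h compound exposure at 37 °C.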

[1] = target: B-Raf (V600E) (SEQ. ID NO: 4) kinase (Homo sapiens (Human), UniProt P15056, V600E); assay: Biochemical Assay for B-Raf (V600E) (1); details: Table J, BRAF V600E, assay version (1); read-out: BRAF VE (1) IC50
Sequence of B-Raf (V600E) (SEQ. ID NO: 4) kinase (P15056 416-766 V600E): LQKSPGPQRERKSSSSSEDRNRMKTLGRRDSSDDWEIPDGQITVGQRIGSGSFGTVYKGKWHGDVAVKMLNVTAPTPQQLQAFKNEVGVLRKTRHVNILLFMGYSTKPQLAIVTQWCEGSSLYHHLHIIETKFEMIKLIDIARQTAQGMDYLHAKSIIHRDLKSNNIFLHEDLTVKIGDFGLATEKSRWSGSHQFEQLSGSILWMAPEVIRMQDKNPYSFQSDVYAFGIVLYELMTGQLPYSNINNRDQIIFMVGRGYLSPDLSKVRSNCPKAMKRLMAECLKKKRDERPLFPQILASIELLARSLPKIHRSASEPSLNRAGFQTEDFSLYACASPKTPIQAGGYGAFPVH
How it was run: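 Coupled pyruvate kinase/lactate dehydrogenase assay: 0.03 nM B-Raf V600E, 30.1 nM MEK, 1 mM ATP, pH 7.5 Tris/MgCl2 buffer, 1% DMSO. NADH oxidation followed at 340 nm for 6 h at 30 °C; rate from 3–4 h converted to percent inhibition, IC50 by four-parameter fit.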

[2] = target: B-Raf kinase (SEQ. ID NO: 2) (Homo sapiens (Human), UniProt P15056); assay: Biochemical Assay for B-Raf (1); details: Table J, assay version (1); read-out: BRAF (1) IC50
Sequence of B-Raf kinase (SEQ. ID NO: 2) (P15056 416-766): as the sequence (P15056 416-766 V600E) above, with E185V counted along it
How it was run: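 Continuous PK/LDH-coupled NADH oxidation assay, A340 read for 6 h at 30° C., with 0.13 nM B-Raf, 30.1 nM MEK substrate and 1 mM ATP in Tris pH 7.5, MgCl2, DTT, detergents, 1% DMSO. Rate taken from 4–5 h window; percent inhibition vs no-compound and known-inhibitor controls; four-parameter fit gives IC50.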

Row | SMILES | pIC50 (WM3928 cells) | pIC50 (H2405 cells) | pIC50 [1] | pIC50 [2]
1 | CNC(=O)c1cc(-c2cccc(-c3cc(NC(=O)c4ccnc(C(C)(C)C#N)c4)ccc3C)c2)cnn1 [Example 191] | ≥ 7.00 | ≥ 7.00 | ≥ 7.00 | 6.30 to 7.00
2 | CNC(=O)c1cc(-c2cccc(-c3cc(NC(=O)c4ccnc(C(C)(C)C#N)c4)cnc3C)c2)ccn1 [Example 192] | ≥ 7.00 | 6.30 to 7.00 | ≥ 7.00 | 6.30 to 7.00
3 | Cc1ncc(NC(=O)c2ccnc(C(C)(C)C#N)c2)cc1-c1ccnc(-c2ccnc(NC(=O)C3CC3)c2)n1 [Example 193] | ≥ 7.00 | ≥ 7.00 | ≥ 7.00 | ≥ 7.00
4 | CNC(=O)c1cc(-c2nc(-c3cc(NC(=O)c4ccnc(C(C)(C)C#N)c4)ccc3C)cc(C3CC3)n2)ccn1 [Example 196] | 6.30 to 7.00 | 6.30 to 7.00 | ≥ 7.00 | 6.30 to 7.00
5 | CNC(=O)c1cc(-c2ccnc(-c3cc(NC(=O)c4ccnc(C(C)(C)C#N)c4)cnc3C)n2)ccn1 [Example 199] | 5.00 to 6.00 | 6.30 to 7.00 | ≥ 7.00 | 6.00 to 6.30
6 | CNC(=O)c1cc(-c2cccc(-c3cc(NC(=O)c4ccnc(C(C)(C)C#N)c4)cnc3C)c2)cnn1 [Example 201] | 6.30 to 7.00 | 6.30 to 7.00 | ≥ 7.00 | 6.00 to 6.30
7 | Cc1ccc(NC(=O)c2cc(CN(C)C)cc(C(F)(F)F)c2)cc1-c1cccc(-c2cc(NC(=O)C3CC3)ncn2)c1 [Example 202] | ≥ 7.00 | 6.30 to 7.00 | ≥ 7.00 | ≥ 7.00
8 | CNC(=O)c1cc(-c2cccc(-c3cc(NC(=O)c4ccnc(C(C)(C)C#N)c4)cnc3C)c2)ncn1 [Example 204] | 6.30 to 7.00 | 6.30 to 7.00 | ≥ 7.00 | 6.30 to 7.00
9 | CNC(=O)c1cc(-c2cc(-c3cc(NC(=O)c4ccnc(C(C)(C)F)c4)ccc3C)ccn2)ccn1 [Example 214] | ≥ 7.00 | 6.30 to 7.00 | ≥ 7.00 | 6.30 to 7.00
10 | Cc1ncc(NC(=O)c2ccnc(C(C)(C)C#N)c2)cc1-c1cc(-c2cc(NC(=O)C3CC3)ncn2)cc(C2CC2)c1 [Example 218] | ≥ 7.00 | 6.30 to 7.00 | ≥ 7.00 | 6.30 to 7.00
11 | COCCNc1cc(-c2nccc(-c3cc(NC(=O)c4ccnc(C(C)(C)C#N)c4)ccc3C)n2)ccn1 [Example 221] | 6.00 to 6.30 | 5.00 to 6.00 | ≥ 7.00 | ≥ 7.00
12 | Cc1ncc(NC(=O)c2ccnc(C(C)(C)C#N)c2)cc1-c1cccc(-c2ccnc(NC(=O)C3CC3)c2)c1 [Example 222] | ≥ 7.00 | 6.30 to 7.00 | ≥ 7.00 | ≥ 7.00
13 | Cc1ccc(NC(=O)c2ccnc(C(C)(C)C#N)c2)cc1-c1cccc(-c2ccnc(NC(=O)C3CC3)c2)c1 [Example 223] | ≥ 7.00 | ≥ 7.00 | ≥ 7.00 | ≥ 7.00
14 | Cc1ccc(NC(=O)c2ccnc(C(C)(C)C#N)c2)cc1-c1cncc(-c2cc(NC(=O)C3CC3)ncn2)c1 [Example 224] | ≥ 7.00 | ≥ 7.00 | ≥ 7.00 | ≥ 7.00
15 | COC(=O)Nc1cc(-c2cccc(-c3cc(NC(=O)c4ccnc(C(C)(C)C#N)c4)cnc3C)c2)ncn1 [Example 225] | ≥ 7.00 | 6.00 to 6.30 | ≥ 7.00 | ≥ 7.00
16 | Cc1ccc(NC(=O)c2ccnc(C3CC3)c2)cc1-c1ccnc(-c2ccnc(NC(=O)C3CC3)c2)n1 [Example 229] | ≥ 7.00 | ≥ 7.00 | ≥ 7.00 | ≥ 7.00
17 | Cc1ccc(NC(=O)c2ccnc(C(C)(C)C#N)c2)cc1-c1cnnc(-c2ccnc(NC(=O)C3CC3)c2)c1 [Example 230] | ≥ 7.00 | ≥ 7.00 | ≥ 7.00 | ≥ 7.00
18 | CNC(=O)c1cc(-c2cc(-c3cc(NC(=O)c4cccc(C(C)(C)C#N)c4)ccc3C)cc(OCCO)n2)ccn1 [Example 231] | ≥ 7.00 | ≥ 7.00 | ≥ 7.00 | ≥ 7.00
